Results taken from patent US5639783A, “Ketone derivatives” (Mitsubishi Chemical Corporation, priority 1991, dated 1997).
Like-named read-outs stand apart in the source and are kept apart here.

Legend:
Type in all cases: biochemical
papain = target: T1, papain (Carica papaya, UniProt P00784); experiment: Thiol protease inhibitory activity, papain (P-3125, Sigma)
T1 sequence (P00784 134-345): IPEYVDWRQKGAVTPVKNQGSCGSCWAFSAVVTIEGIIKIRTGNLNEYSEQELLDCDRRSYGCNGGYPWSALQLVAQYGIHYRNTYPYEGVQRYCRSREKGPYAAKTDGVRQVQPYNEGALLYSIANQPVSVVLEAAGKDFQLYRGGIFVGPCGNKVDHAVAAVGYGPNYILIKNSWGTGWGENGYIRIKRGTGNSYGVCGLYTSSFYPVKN
Protocol: (§1) Inhibitory activity against papain (P-3125, Sigma) and cathepsin B (C-6286, Sigma) was assayed according to the method described in a literature [Biochemical Journal, 201, 189 (1982)]. Cathepsin L was purified from rat kidney according to the method in a literature [Journal of Biochemistry, 100, 35 (1986)], and the inhibitory activity against it was assayed in the same manner as described in the above literature for cathepsin B. Furthermore, m-calpain was purified from rat brain according to a known method [Journal of Biological Chemistry, 254, p. 3210 (1984)] and the inhibitory activity against it was assayed by a method described in a literature [Journal of Biological Chemistry, 259, 12489 (1984)]. It is evident from Tables 3 and 4 that the compounds of the present invention have a potent inhibitory activity against thiol proteases such as papain, cathepsin B, cathepsin L or m-calpain.

cathepsin B = target: T2, cathepsin B (Bos taurus, UniProt P07688); experiment: Thiol protease inhibitory activity, cathepsin B (C-6286, Sigma); details: Table 3
T2 construct: purchased Sigma C-6286
Protocol: as §1

cathepsin L = target: T3, cathepsin L (Rattus norvegicus, UniProt P07154); experiment: Thiol protease inhibitory activity, cathepsin L purified from rat kidney; details: Table 3
T3 construct: Cathepsin L was purified from rat kidney; from tissue; host or cells: rat kidney
Protocol: as §1

m-calpain = target: T4, m-calpain (Rattus norvegicus, UniProt Q07009); experiment: Thiol protease inhibitory activity, m-calpain purified from rat brain; details: Table 3
T4 construct: m-calpain was purified from rat brain; from tissue; host or cells: rat brain
T4 sequence (Q07009 20-700 limits assumed): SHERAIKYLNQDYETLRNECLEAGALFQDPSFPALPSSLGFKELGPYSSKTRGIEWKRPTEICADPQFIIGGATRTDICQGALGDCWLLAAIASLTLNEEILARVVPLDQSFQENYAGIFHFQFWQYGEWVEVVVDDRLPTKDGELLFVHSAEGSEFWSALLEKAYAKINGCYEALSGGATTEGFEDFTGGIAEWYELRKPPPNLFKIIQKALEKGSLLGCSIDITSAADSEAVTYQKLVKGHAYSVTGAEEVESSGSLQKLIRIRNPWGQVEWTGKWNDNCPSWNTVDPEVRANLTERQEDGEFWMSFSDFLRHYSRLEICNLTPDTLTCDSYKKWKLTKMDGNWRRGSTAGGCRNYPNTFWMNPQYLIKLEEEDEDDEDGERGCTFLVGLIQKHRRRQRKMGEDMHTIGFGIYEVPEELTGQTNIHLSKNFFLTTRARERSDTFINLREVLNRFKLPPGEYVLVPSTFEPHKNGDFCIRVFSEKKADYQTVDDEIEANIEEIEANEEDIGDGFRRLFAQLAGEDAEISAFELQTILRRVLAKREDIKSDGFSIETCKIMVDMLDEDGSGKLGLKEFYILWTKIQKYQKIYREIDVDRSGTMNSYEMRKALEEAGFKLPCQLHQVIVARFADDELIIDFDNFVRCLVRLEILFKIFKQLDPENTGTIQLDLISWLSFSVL
T4 sequence (Q64537 1-270 partner): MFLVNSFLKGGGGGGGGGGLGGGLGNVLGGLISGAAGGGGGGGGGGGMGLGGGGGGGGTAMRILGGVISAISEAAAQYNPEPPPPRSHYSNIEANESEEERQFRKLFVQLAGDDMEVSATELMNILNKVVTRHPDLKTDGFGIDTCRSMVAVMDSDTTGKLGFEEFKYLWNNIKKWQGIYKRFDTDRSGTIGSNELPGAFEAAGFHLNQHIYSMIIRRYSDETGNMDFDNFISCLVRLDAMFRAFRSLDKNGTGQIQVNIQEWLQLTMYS
Protocol: as §1

T3 sequence (P07154 114-334): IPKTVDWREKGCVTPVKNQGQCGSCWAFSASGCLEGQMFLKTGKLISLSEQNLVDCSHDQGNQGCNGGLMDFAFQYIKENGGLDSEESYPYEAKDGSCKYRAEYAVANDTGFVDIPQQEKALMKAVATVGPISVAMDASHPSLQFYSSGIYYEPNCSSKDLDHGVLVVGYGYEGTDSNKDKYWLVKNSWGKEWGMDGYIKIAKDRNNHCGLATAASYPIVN

Structure (SMILES)	IC50 (papain) [µM]	IC50 (cathepsin B) [µM]	IC50 (cathepsin L) [µM]	IC50 (m-calpain) [µM]	IC50 (papain; Table 3, read-out: IC50 papain) [µM]
CCCC[C@H](NC(=O)[C@H](CC(C)C)NC(=O)COc1ccccc1)C(=O)C[S+]([O-])Cc1ccco1 (some centres unmarked) [4 (No. 83), (s)-1-furfurylsulfinyl-3-((s)-4-methyl-2-phenoxyacetylaminovalerylamino)-2-heptanone]	0.21	0.044	0.045	12	–
CCCC[C@H](NC(=O)[C@H](CC(C)C)NC(=O)OCc1ccccc1)C(=O)CSCc1ccco1 [22 (No. 48), (s)-3-((s)-2-benzyloxycarbonylamino-4-methylvalerylamino)-1-furfurylthio-2-heptanone]	–	0.98	1.3	11	1.1
CCCC[C@H](NC(=O)[C@H](CC(C)C)NC(=O)OCc1ccccc1F)C(=O)CSCc1ccco1 [23 (No. 49), (s)-3-[(s)-2-(2-fluorobenzyloxycarbonylamino)-4-methylvalerylamino]-1-furfurylthio-2-heptanone]	–	3.7	1.1	6.4	22
CCCC[C@H](NC(=O)[C@H](CC(C)C)NC(=O)OCc1ccccn1)C(=O)CSCc1ccco1 [28 (No. 59), (s)-1-furfurylthio-3-[(s)-4-methyl-2-(2-pyridylmethoxycarbonylamino)valerylamino]-2-heptanone]	–	2.1	15	11	3.4
CCCC[C@H](NC(=O)[C@H](CC(C)C)NC(=O)Cc1ccc(F)cc1)C(=O)CSCc1ccco1 [31 (No. 69), (s)-3-[(s)-2-(4-fluorophenylacetylamino)-4-methylvalerylamino]-1-furfurylthio-2-heptanone]	–	0.55	0.63	22	1.4
CCCC[C@H](NC(=O)[C@H](CC(C)C)NC(=O)Cc1cccc2ccccc12)C(=O)CSCc1ccco1 [33 (No. 76), (s)-1-furfurylthio-3-[(s)-4-methyl-2-(1-naphtylacetylamino)valerylamino]-2-heptanone]	–	1.2	0.27	6.4	0.7
CCCC[C@H](NC(=O)[C@H](CC(C)C)NC(=O)Cc1csc2ccccc12)C(=O)CSCc1ccco1 [34 (No. 79), (s)-3-[(s)-2-(3-benzothienylacetylamino)-4-methylvalerylamino]-1-furfurylthio-2-heptanone]	–	0.41	0.51	5.5	0.36
CCCC[C@H](NC(=O)[C@H](CC(C)C)NC(=O)COC1CCCCC1)C(=O)CSCc1ccco1 [35 (No. 81), (s)-3-((s)-2-cyclohexyloxyacetylamino-4-methylvalerylamino)-1-furfurylthio-2-heptanone]	–	0.7	1.1	8.6	0.21
CCCC[C@H](NC(=O)[C@H](CC(C)C)NC(=O)COc1ccccc1F)C(=O)CSCc1ccco1 [36 (No. 85), (s)-3-[(s)-2-(2-fluorophenoxyacetylamino)-4-methylvalerylamino]-1-furfurylthio-2-heptanone]	–	4.9	1.3	25	26
CCCC[C@H](NC(=O)[C@H](CC(C)C)NC(=O)COc1cccc(F)c1)C(=O)CSCc1ccco1 [37 (No. 86), (s)-3-[(s)-2-(3-fluorophenoxyacetylamino)-4-methylvalerylamino]-1-furfurylthio-2-heptanone]	–	0.7	0.45	15	1.3
CCCC[C@H](NC(=O)[C@H](CC(C)C)NC(=O)COc1ccc(F)cc1)C(=O)CSCc1ccco1 [38 (No. 87), (s)-3-[(s)-2-(4-fluorophenoxyacetylamino)-4-methylvalerylamino]-1-furfurylthio-2-heptanone]	–	0.62	0.72	5	0.42
CCCC[C@H](NC(=O)[C@H](CC(C)C)NC(=O)COc1ccc(Cl)cc1)C(=O)CSCc1ccco1 [40 (No. 90), (s)-3-[(s)-2-(4-chlorophenoxyacetylamino)-4-methylvalerylamino]-1-furfurylthio-2-heptanone]	–	0.27	0.85	8.4	2.1
CCCC[C@H](NC(=O)[C@H](CC(C)C)NC(=O)COc1cccc(Cl)c1Cl)C(=O)CSCc1ccco1 [41 (No. 91), (s)-3-[(s)-2-(2,3-dichlorophenoxyacetylamino)-4-methylvalerylamino]-1-furfurylthio-2-heptanone]	–	5.7	1.1	14	21
CCCC[C@H](NC(=O)[C@H](CC(C)C)NC(=O)COc1ccc(Cl)cc1Cl)C(=O)CSCc1ccco1 [42 (No. 92), (s)-3-[(s)-2-(2,4-dichlorophenoxyacetylamino)-4-methylvalerylamino]-1-furfurylthio-2-heptanone]	–	1.9	0.74	23	4.5
CCCC[C@H](NC(=O)[C@H](CC(C)C)NC(=O)COc1c(Cl)cc(Cl)cc1Cl)C(=O)CSCc1ccco1 [43 (No. 94), (s)-1-furfurylthio-3-[(s)-4-methyl-2-(2,4,6-trichlorophenoxyacetylamino)valerylamino]-2-heptanone]	–	0.057	0.038	5.8	0.37
CCCC[C@H](NC(=O)[C@H](CC(C)C)NC(=O)COc1ccccc1C)C(=O)CSCc1ccco1 [44 (No. 96), (s)-1-furfurylthio-3-[(s)-4-methyl-2-(2-methylphenoxyacetylamino)valerylamino]-2-heptanone]	–	0.17	0.06	22	0.88
CCCC[C@H](NC(=O)[C@H](CC(C)C)NC(=O)COc1cccc(C)c1)C(=O)CSCc1ccco1 [45 (No. 97), (s)-1-furfurylthio-3-[(s)-4-methyl-2-(3-methylphenoxyacetylamino)valerylamino]-2-heptanone]	–	0.38	0.19	11	0.51
CCCC[C@H](NC(=O)[C@H](CC(C)C)NC(=O)COc1ccc(Cl)cc1C)C(=O)CSCc1ccco1 [46 (No. 100), (s)-3-[(s)-2-(4-chloro-2-methylphenoxyacetylamino)-4-methylvalerylamino]-1-furfurylthio-2-heptanone]	–	0.4	0.1	16	0.39
CCCC[C@H](NC(=O)[C@H](CC(C)C)NC(=O)CSc1ccccc1)C(=O)CSCc1ccco1 [49 (No. 107), (s)-1-furfurylthio-3-((s)-4-methyl-2-phenylthioacetylaminovalerylamino)-2-heptanone]	0.04	0.59	0.67	11	–
CCCC[C@H](NC(=O)[C@H](CC(C)C)NC(=O)COc1ccc2ccccc2c1)C(=O)CSCc1ccco1 [53 (No. 115), (s)-1-furfurylthio-3-[(s)-4-methyl-2-(2-naphtoxyacetylamino)valerylamino]-2-heptanone]	–	11	1.5	6.2	9.2
CC(C)C[C@H](NC(=O)Cc1csc2ccccc12)C(=O)N[C@@H](Cc1ccccc1)C(=O)CSCc1ccco1 [162 (No. 345), (s)-3-[(s)-2-(3-benzothienylacetylamino)-4-methylvalerylamino]-1-furfurylthio-4-phenyl-2-butanone]	–	5.3	–	3.7	0.95
